The record followed here is ChEMBL document CHEMBL1135347, “Spirocyclic NK(1) antagonists II: [4.5]-spiroethers” (Bioorg Med Chem Lett, 2002).

The test system of series [1] is Gerbillinae. As to the kind of experiment: Ability to inhibit the foot tapping in gerbil immediately following central infusion of GR-73632 (agonist), 5 min after intravenous administration of compound. It counts as functional. Conditions: read-out: ID50 (the source's name).
The next series deals with Substance-P receptor (Homo sapiens, UniProt P25103). As to the kind of experiment: Displacement of [125I]-labeled substance P from the cloned human Tachykinin receptor 1 expressed in CHO cells. It counts as cell-based. Background: Loss of bound radioactivity is the signal in a displacement assay; it reports binding, not function.
Series [2] has as its system Mustela putorius furo. As to the kind of experiment: Compound was tested for inhibition of emetic response in ferret by administering perorally following emetogen challenge after 60 min (po). It counts as functional.
Series [3] concerns Mustela putorius furo. As to the kind of experiment: Compound was tested for inhibition of emetic response in ferret by administering intravenously following emetogen challenge after 3 min (iv). It counts as functional.
Series [4] relates to Gerbillinae. As to the kind of experiment: Ability to inhibit the foot tapping in gerbil immediately following central infusion of GR-73632 (agonist), 5 min after intravenous administration of compound (1 mg/kg). It counts as functional.
The nature of series [5]: Bioavailability in rat. It counts as ADME, organism-based. The note with it: in vivo.
A short description of series [6]: Half-life in Dog. It counts as ADME, organism-based, Canis lupus familiaris. The note with it: in vivo.
Series [7] can be described thus: Half-life in rat. It counts as ADME, organism-based. Conditions: in vivo.
Series [8] can be described thus: Bioavailability in dog. It counts as ADME, organism-based, Canis lupus familiaris. Conditions: in vivo.

The term IC50 denotes the concentration that inhibits the measured activity by half. A word on the Inhibition: it is the change of the read-out against control, counted positive when it falls. Low values mean little suppression, high ones strong suppression. As a reminder, the bioavailability is the share of a dose that reaches the circulation, judged against a reference dose that is usually intravenous. The low end stands for little systemic uptake, the high end for much systemic uptake. A word on the half-life: it is how long it takes for the measured level to halve. A lower half-life goes with fast loss.

Sequence of Substance-P receptor (P25103 whole entry): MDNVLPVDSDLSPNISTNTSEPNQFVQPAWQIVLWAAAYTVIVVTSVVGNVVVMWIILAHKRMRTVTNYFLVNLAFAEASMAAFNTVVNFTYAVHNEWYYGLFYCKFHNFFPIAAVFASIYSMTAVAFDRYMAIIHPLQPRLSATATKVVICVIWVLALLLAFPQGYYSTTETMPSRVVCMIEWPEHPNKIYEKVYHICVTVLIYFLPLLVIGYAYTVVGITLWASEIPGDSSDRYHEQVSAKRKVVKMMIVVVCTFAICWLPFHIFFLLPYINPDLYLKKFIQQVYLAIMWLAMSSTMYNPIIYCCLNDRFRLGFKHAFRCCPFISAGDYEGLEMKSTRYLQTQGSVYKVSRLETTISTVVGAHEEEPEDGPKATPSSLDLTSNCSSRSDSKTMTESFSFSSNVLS

With `COc1ccc(-n2nnnc2C(F)(F)F)cc1C1=CC2(CCCN[C@H]2c2ccccc2)OC1` (stereo not given in full), the ED50 with Gerbillinae [1] was 0.1 mg/kg. The molecule further yielded an IC50 on Substance-P receptor of 0.08 nM.
On to `c1ccc([C@H]2COC3(CCCN[C@H]3c3ccccc3)C2)cc1` (stereo not given in full), for which the IC50 at Substance-P receptor is 133 nM.
For `COc1ccc(OC(F)(F)F)cc1[C@H]1COC2(CCCN[C@H]2c2ccccc2)C1` (stereo not given in full), the ID90 is 3 mg/kg in the series on Mustela putorius furo [2] and 1 mg/kg with Mustela putorius furo [3]. Further, the ED50 with Gerbillinae [1] amounted to 0.3 mg/kg. At Substance-P receptor, this molecule returned an IC50 of 0.3 nM.
As for `COc1ccc(-n2nnnc2C(F)(F)F)cc1[C@H]1COC2(CCCN(Cc3n[nH]c(O)n3)C2c2ccccc2)C1` (stereo not given in full), the Inhibition in the series on Gerbillinae [4] is recorded as 6%. On Substance-P receptor, this molecule had an IC50 of 0.1 nM.
With `COc1ccc(-n2nnnc2C(F)(F)F)cc1[C@H]1COC2(CCCNC2c2ccccc2)C1` (stereo not given in full), the figures for the ID90 in the series on Mustela putorius furo [2] and with Mustela putorius furo [3] were 1 mg/kg and 0.2 mg/kg, respectively. Also, the bioavailability in [5] is 16%; in series [8], 79%. Besides, the half-life is 2.7 h in [6] and 1.7 h in [7]. Moreover, the ED50 in the series with Gerbillinae [1] was 0.1 mg/kg. At Substance-P receptor, the IC50 was determined as 0.11 nM.
On to `COc1ccc(OC(F)(F)F)cc1C1=CC2(CCCNC2c2ccccc2)OC1` (stereo not given), for which the ED50 in the series with Gerbillinae [1] is 0.2 mg/kg. The molecule further had an IC50 at Substance-P receptor of 0.35 nM.
Molecule `COc1ccccc1[C@H]1COC2(CCCNC2c2ccccc2)C1` (stereo not given in full) had a half-inhibitory concentration (IC50) on Substance-P receptor of 6.5 nM.
The molecule `COc1ccc(OC(F)(F)F)cc1[C@H]1COC2(CCCN(Cc3nc[nH]n3)C2c2ccccc2)C1` (stereo not given in full) yielded an Inhibition in the series with Gerbillinae [4] of 45%. At Substance-P receptor, this molecule returned an IC50 of 0.89 nM.
With `COc1ccc(-n2nnnc2C(F)(F)F)cc1[C@H]1COC2(CCCN(Cc3c[nH]cn3)C2c2ccccc2)C1` (stereo not given in full), the ED50 in the series on Gerbillinae [1] came out at 0.5 mg/kg. On Substance-P receptor, this molecule came in with an IC50 of 0.11 nM.
Molecule `COc1ccccc1C1=CC2(CCCNC2c2ccccc2)OC1` (stereo not given) displayed an IC50 at Substance-P receptor of 49 nM.
